According to paper PMC5118696, “Identification of inhibitors that dually target the new permeability pathway and dihydroorotate dehydrogenase in the blood stage of Plasmodium falciparum” (Scientific Reports, 2016):
Where two headings read alike, the source gives them in different places.

What was measured:
[1] = system: Hyp1-NLuc Plasmodium falciparum-infected erythrocytes (new permeability pathway, NPP); assay: microbe, parasite or virus in culture; conditions: Erythrocyte, 0.33 h, read-out: Mean RLU at 28 min (As % of DMSO control)
[2] = system: Hyp1-NLuc Plasmodium falciparum-infected erythrocytes (new permeability pathway, NPP); assay: microbe, parasite or virus in culture; conditions: Erythrocyte, 0.33 h, read-out: % of control remaining
[3] = target: T1, PfDHODH (dihydroorotate dehydrogenase) (Plasmodium falciparum, UniProt Q08210); assay: DCIP reduction enzyme assay with recombinant PfDHODH; IC50 extrapolated, inhibition did not reach […]; assay type: biochemical
T1 construct: gene PFF0160c; amino acids 169–569
T1 sequence (Q08210 169-569): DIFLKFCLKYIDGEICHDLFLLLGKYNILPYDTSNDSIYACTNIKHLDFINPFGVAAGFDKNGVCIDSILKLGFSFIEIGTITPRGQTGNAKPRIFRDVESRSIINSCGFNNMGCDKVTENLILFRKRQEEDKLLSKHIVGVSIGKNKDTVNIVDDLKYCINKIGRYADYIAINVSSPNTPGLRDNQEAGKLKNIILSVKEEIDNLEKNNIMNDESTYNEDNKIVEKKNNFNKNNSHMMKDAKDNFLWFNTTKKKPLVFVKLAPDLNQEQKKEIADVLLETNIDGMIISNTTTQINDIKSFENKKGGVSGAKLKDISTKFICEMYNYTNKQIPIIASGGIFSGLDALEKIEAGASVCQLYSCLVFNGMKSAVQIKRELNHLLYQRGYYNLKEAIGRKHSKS

| SMILES | activity at 2 µM [1] | activity at 2 µM [2] | IC50 [3] |
| --- | --- | --- | --- |
| Cc1ccc(CSCc2ccc(C(=O)NC3CC3)o2)cc1 [MMV007571] | 22% | 26% | ~158 µM |
| CCN(CC)S(=O)(=O)c1ccc(-c2csc(Nc3ccc(C)c(C)c3)n2)cc1 [MMV009108] | 107% | 107% |  |
| Cc1cc(Nc2ccc(OCc3ccccc3)cc2)nc2cc(O)ccc12 [MMV007181] | 105% | 108% |  |
| COc1cccc(C(=O)Nc2ccc(-c3nc4ccccc4[nH]3)cc2)c1 [MMV019762] | 96.5% | 97.1% |  |
| COc1ccc(Nc2nc(NN=Cc3ccc(O)cc3)nc(Nc3ccc([N+](=O)[O-])cc3)n2)cc1 [MMV666689] | 95.2% | 93.1% |  |
| CCOC(=O)c1cnc2ccc(Cl)cc2c1NCCCN(C)C [MMV006882] | 106% | 110% |  |
| CCCCCCc1cc2cc(-c3nc4ccccc4[nH]3)c(=Nc3ccccc3C)oc2cc1O [MMV666597] | 102% | 111% |  |
| N=c1n(CCN2CCCCC2)c2ccccc2n1CC(O)c1cccc(Br)c1 (stereo not drawn) [MMV665902] | 101% | 115% |  |
| OC1=C2C(=Nc3ccccc3SC2c2ccc(Br)cc2)c2ccccc21 (stereo not drawn) [MMV007127] | 108% | 114% |  |
| COc1cccc(Nc2nc(NCCO)c3ccccc3n2)c1 [MMV011944] | 101% | 101% |  |
| Oc1ccc(Br)cc1CN1CCN(Cc2ccc(Cl)cc2)CC1 [MMV665809] | 93.3% | 91.7% |  |
| O=C(NCc1ccco1)C1CCN(S(=O)(=O)c2ccc(Cl)cc2)CC1 [MMV006188] | 106% | 112% |  |
| CCCc1c(CC)c(=N)c2ccccc2n1C [MMV008416] | 98.9% | 100% |  |
| Nc1nc(Nc2cccc(F)c2)nc2ccccc12 [MMV080034] | 93.1% | 94.5% |  |
| CCCOCc1cc(CN2CCN(c3cccc(Cl)c3)CC2)c(O)c2ncccc12 [MMV000787] | 101% | 111% |  |
| COc1cccc(NC(=O)[C@H](C(C)C)n2c(=O)[nH]c3ccccc3c2=O)c1 [MMV665878] | 102% | 101% |  |
| OC1CCCCC1C1(NC(=S)Nc2ccccc2)CCCCC1 (stereo not drawn) [MMV665980] | 101% | 101% |  |
| CC(=O)Nc1nnc(SCc2c(C)cc(C(C)(C)C)cc2C)s1 [MMV020700] | 114% | 115% |  |
| CCN(CC)CCNc1ccnc2cc(Cl)ccc12 [MMV006087] | 107% | 105% |  |
| C[n+]1c2ccccc2nc2ccc(NCCO)cc21 [MMV396693] | 101% | 100% |  |
| CN(C)c1ccc(-c2nc3cc(N)ccc3[nH]2)cc1 [MMV666102] | 98.7% | 90% |  |
| COc1ccc(C(=O)Nc2nonc2-c2ccc(OC)c(OC)c2)cc1Cl [MMV011567] | 103% | 103% |  |
